The record followed here is paper PMC8807614 (Scientific Reports, 2022).

Broadly, the EC50 is the concentration that produces a half-maximal response.

The nature of data set [1]: In vivo plasma metabolite identification (MetID) of GUB03385. On the set-up: species or system DIO mice. The following applies: UPLC-Orbitrap MS; for %AUC 30 min: metabolite of GUB03385 in plasma of DIO mice 30 min after GUB03385 1250 nmol/kg SC; for %AUC 60 min: metabolite of GUB03385 in plasma of DIO mice 60 min after GUB03385 1250 nmol/kg SC; for %AUC 120 min: metabolite of GUB03385 in plasma of DIO mice 120 min after GUB03385 1250 nmol/kg SC. As for the experimental part:
Cardiac blood samples from DIO mice dosed with GUB03385 (1250 nmol/kg, SC, n = 10) were collected after 5, 10, 30, 60 and 120 min. Anaesthesia was performed using 2–4% isoflurane/O2 (Attane Vet., ScanVet Animal Health, Fredensborg, Denmark) inhalation. Blood samples were centrifuged (3000 g, 10 min) and plasma supernatants were stored at − 80 °C until MS analysis which was performed by Admescope Ltd (Oulu, Finland). Plasma precipitation was performed with twofold volume of cold acetonitrile containing 1% of formic acid. After centrifugation ([…], 10 min), supernatant was pipetted to 96-well plate and analysed using a Waters Acquity UPLC coupled to a Thermo Q-Exactive Focus Orbitrap MS. Peptides were separated on a Waters CSH C18 (2.1 × 50 mm, […]) column with a linear gradient from 2 to 40% acetonitrile over 3.5 min at a flowrate of 0.5 mL/min. Mass spectra were acquired in positive ionization mode in the mass range 133–2000 m/z with a resolution of 35,000; MS/MS data were acquired at a resolution of 17,500 in AIF mode with a normalized collision energy of 57. Data analysis and profiling of metabolites was performed by Admescope using Thermo XCalibur 4.1.31.9.

The target in data set [2] is human NPFF2R (Homo sapiens, UniProt Q9Y5X5). The data set can be described thus: NPFF2R functional activity assay (cAMP, HTRF). The format is cell-based. To be noted: CHO-K1 cells stably expressing human NPFF2R, 1500 cells/well; HTRF cAMP (CisBio); 3 µM forskolin (~90% activity level); 30 min; DPBS, 0.5 mM IBMX, 0.05% casein; 11 concentrations. As for the experimental part: Figure 3 GPR10 and NPFF2R profiling of in vivo metabolites of GUB03385. […] (b) cAMP measurements in human NPFF2R CHO-K cells (HTRF technology, CisBio) at a fixed concentration of 3 µM forskolin after 30 min. incubation at room temperature with metabolites and the native peptide NPSF. Representative curves of three determinations.
Chain of human NPFF2R (Q9Y5X5 whole entry): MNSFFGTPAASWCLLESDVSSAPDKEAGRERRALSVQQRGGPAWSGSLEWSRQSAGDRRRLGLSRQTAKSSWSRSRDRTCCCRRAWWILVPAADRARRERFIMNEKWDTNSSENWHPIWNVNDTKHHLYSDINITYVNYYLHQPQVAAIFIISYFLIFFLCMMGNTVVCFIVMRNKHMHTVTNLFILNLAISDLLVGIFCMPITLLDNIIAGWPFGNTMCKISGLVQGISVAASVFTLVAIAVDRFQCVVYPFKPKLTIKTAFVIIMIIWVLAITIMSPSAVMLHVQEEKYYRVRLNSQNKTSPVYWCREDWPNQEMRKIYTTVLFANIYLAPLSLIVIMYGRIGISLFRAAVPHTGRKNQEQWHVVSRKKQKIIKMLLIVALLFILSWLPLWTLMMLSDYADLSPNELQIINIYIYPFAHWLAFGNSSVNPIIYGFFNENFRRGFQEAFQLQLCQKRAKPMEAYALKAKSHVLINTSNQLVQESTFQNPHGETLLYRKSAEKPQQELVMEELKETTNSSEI
The Homogenous Time Resolved Fluorescence (HTRF) technology optimized for Gq coupled receptors has thoroughly been described in the CisBio IP1 kit manual (#62IPAPEC) and in the cAMP assay kit manual for Gi coupled receptors (#62AM9PEC). Briefly, this technic is based on a competitive immunoassay using cryptate-labelled anti-cAMP or anti-IP1 antibodies and d2-labeled cAMP or IP1. In the absence of cellular cAMP or IP1, the anti-cryptate conjugate may get into proximity to the d2 conjugate and energy (FRET) can be transferred from cryptate to d2. Chem-1 cells stably expressing the human prolactin releasing peptide receptor (GPR10, Eurofins, # HTS057C) and irradiated CHO-K1 cells stably expressing the human NPFF2R (PerkinElmer, #ES-490-CF) were applied as cells in suspension, brought to life from frozen cell stocks immediately before assay performance. 384-Well (Corning, #4513) assay formats with a total assay volume of 20 µl were applied. GPR10 cells (10.000 cells/well) were incubated with agonist peptides and the NPFF2R cells (1500 cells/well) were incubated with agonist peptides and forskolin (~ 90% activity level) for 30 min at 37 °C using IP1 kit stimulation buffer and DPBS (Sigma, #D8537) containing 0.5 mM IBMX (Sigma, # I5879), receptively. Both stimulation buffers were supplemented with 0.05% casein (Sigma, # C4765-10 ml). After addition of HTRF® detection reagents and incubation with shaking (2400 rpm) for one hour at room temperature signals at 620 and 665 nm (raw counts: ratio of 665/620) were detected at a ClarioStar plate reader (BMG Labtech, Ortenberg, Germany). Concentration–response evaluation of compounds was performed with 11 concentrations of agonist peptides (covering 3 decades) and EC50 values were calculated by nonlinear regression using sigmoid concentration–response with variable slope. Data were analysed using GraphPad v9.1 software (GraphPad, La Jolla, CA).
A general note: Time-resolved FRET reads energy transfer from a long-lived donor to a nearby acceptor.

The structures appear in SMILES notation. Numbered stars: 1 amine (or outer) side, 2 acyl side, 3 side chain; on linkers, the order of the positions; unused ones are H or OH. Side chains are listed from the residue outwards. Peptide text beside a SMILES is read from it. * marks the point of attachment. γGlu = O=C(O)[C@H](CCC(=O)[*:2])N[*:1]; Stearoyl = CCCCCCCCCCCCCCCCCC(=O)*; AEEA = NCCOCCOCC(=O)O

With `CCCCCCCCCCCCCCCCCC(=O)N[C@@H](CCC(=O)NCCOCCOCC(=O)NCCOCCOCC(=O)NCCCC[C@H](NC(=O)CNC(=O)[C@H](CCCNC(=N)N)NC(=O)[C@H](CO)NC(=O)[C@H](C)NC(=O)[C@H](Cc1ccc(O)cc1)NC(=O)[C@H](Cc1c[nH]c2ccccc12)NC(=O)[C@H](C)NC(=O)[C@@H]1CCCN1C(=O)[C@H](CC(N)=O)NC(=O)[C@@H](NC(=O)[C@H](CC(=O)O)NC(=O)[C@@H]1CCCN1C(=O)[C@@H](NC(=O)[C@H](CCCNC(=N)N)NC(=O)[C@@H](NC(=O)[C@H](CCC(=O)O)NC(=O)[C@H](CCSC)NC(=O)[C@H](CO)NC(=O)[C@H](Cc1c[nH]cn1)NC(=O)[C@H](CCCNC(=N)N)NC(=O)[C@H](Cc1c[nH]cn1)NC(=O)[C@@H](NC(=O)[C@H](CCCNC(=N)N)NC(=O)[C@@H](N)CO)[C@@H](C)O)[C@@H](C)CC)[C@@H](C)O)[C@@H](C)CC)C(=O)N[C@@H](CCCNC(=N)N)C(=O)N1CCC[C@H]1C(=O)N[C@H](C(=O)NCC(=O)N[C@@H](CCCNC(=N)N)C(=O)N[C@@H](Cc1ccccc1)C(N)=O)C(C)C)C(=O)O` [GUB03385] (H-SRTHRHSMEIRTPDINPAWYASRGK([AEEA-AEEA-γGlu-Stearoyl])RPVGRF-NH2), the “time of degradation after subcutaneous administration” value in data set [1] (DIO mice, 1250 nmol/kg SC, plasma) was < 30 min.
As for `CCCCCCCCCCCCCCCCCC(=O)N[C@@H](CCC(=O)NCCOCCOCC(=O)NCCOCCOCC(=O)NCCCC[C@H](NC(=O)CNC(=O)[C@H](CCCNC(=N)N)NC(=O)[C@H](CO)NC(=O)[C@H](C)N)C(=O)N[C@@H](CCCNC(=N)N)C(=O)N1CCC[C@H]1C(=O)N[C@H](C(=O)NCC(=O)O)C(C)C)C(=O)O` [GUB08247] (H-ASRGK([AEEA-AEEA-γGlu-Stearoyl])RPVG-OH; C-terminus assumed), in data set [1], the “%AUC 30 min” value was determined as 34%, the “%AUC 60 min” value is 7% and the “%AUC 120 min” value was 1%.
`CCCCCCCCCCCCCCCCCC(=O)N[C@@H](CCC(=O)NCCOCCOCC(=O)NCCOCCOCC(=O)NCCCC[C@H](NC(=O)CNC(=O)[C@H](CCCNC(=N)N)NC(=O)[C@@H](N)CO)C(=O)N[C@@H](CCCNC(=N)N)C(=O)N1CCC[C@H]1C(=O)N[C@H](C(=O)NCC(=O)N[C@@H](CCCNC(=N)N)C(=O)N[C@@H](Cc1ccccc1)C(N)=O)C(C)C)C(=O)O` [GUB08248] (H-SRGK([AEEA-AEEA-γGlu-Stearoyl])RPVGRF-NH2): in data set [1], the “%AUC 30 min” value stood at 11% and the “%AUC 60 min” value was determined as 5%.
Take `CCCCCCCCCCCCCCCCCC(=O)N[C@@H](CCC(=O)NCCOCCOCC(=O)NCCOCCOCC(=O)NCCCC[C@H](NC(=O)CNC(=O)[C@H](CCCNC(=N)N)NC(=O)[C@@H](N)CO)C(=O)N[C@@H](CCCNC(=N)N)C(=O)N1CCC[C@H]1C(=O)N[C@H](C(=O)NCC(=O)O)C(C)C)C(=O)O` [GUB08249] (H-SRGK([AEEA-AEEA-γGlu-Stearoyl])RPVG-OH; C-terminus assumed): in data set [1], the “%AUC 30 min” value is on record as 18%, the “%AUC 60 min” value is given as 9% and the “%AUC 120 min” value was 7%.
The like results for `CCCCCCCCCCCCCCCCCC(=O)N[C@@H](CCC(=O)NCCOCCOCC(=O)NCCOCCOCC(=O)NCCCC[C@H](NC(=O)CNC(=O)[C@H](CCCNC(=N)N)NC(=O)[C@@H](N)CO)C(=O)N[C@@H](CCCNC(=N)N)C(=O)N1CCC[C@H]1C(=O)N[C@H](C(=O)O)C(C)C)C(=O)O` [GUB08250] (H-SRGK([AEEA-AEEA-γGlu-Stearoyl])RPV-OH; C-terminus assumed) were, in that order, 48%, 23% and 14%.
Turning to `CCCCCCCCCCCCCCCCCC(=O)N[C@@H](CCC(=O)NCCOCCOCC(=O)NCCOCCOCC(=O)NCCCC[C@H](NC(=O)CN)C(=O)N[C@@H](CCCNC(=N)N)C(=O)N1CCC[C@H]1C(=O)N[C@H](C(=O)NCC(=O)N[C@@H](CCCNC(=N)N)C(=O)N[C@@H](Cc1ccccc1)C(N)=O)C(C)C)C(=O)O` [GUB08251] (H-GK([AEEA-AEEA-γGlu-Stearoyl])RPVGRF-NH2), in data set [1], the “%AUC 60 min” value is 7% and the “%AUC 120 min” value worked out at 8%.
The like results for `CCCCCCCCCCCCCCCCCC(=O)N[C@@H](CCC(=O)NCCOCCOCC(=O)NCCOCCOCC(=O)NCCCC[C@H](N)C(=O)N[C@@H](CCCNC(=N)N)C(=O)N1CCC[C@H]1C(=O)N[C@H](C(=O)NCC(=O)N[C@@H](CCCNC(=N)N)C(=O)O)C(C)C)C(=O)O` [GUB08252] (H-K([AEEA-AEEA-γGlu-Stearoyl])RPVGR-OH; C-terminus assumed) were, in that order, 11% and 10%.
On the same counts, the results for `CCCCCCCCCCCCCCCCCC(=O)N[C@@H](CCC(=O)NCCOCCOCC(=O)NCCOCCOCC(=O)NCCCC[C@H](N)C(=O)N[C@@H](CCCNC(=N)N)C(=O)N1CCC[C@H]1C(=O)N[C@H](C(=O)NCC(=O)O)C(C)C)C(=O)O` [GUB08253] (H-K([AEEA-AEEA-γGlu-Stearoyl])RPVG-OH; C-terminus assumed) are 11% and 15%.
On the same counts, the results for `CCCCCCCCCCCCCCCCCC(=O)N[C@@H](CCC(=O)NCCOCCOCC(=O)NCCOCCOCC(=O)NCCCC[C@H](N)C(=O)N[C@@H](CCCNC(=N)N)C(=O)N1CCC[C@H]1C(=O)N[C@H](C(=O)O)C(C)C)C(=O)O` [GUB08254] (H-K([AEEA-AEEA-γGlu-Stearoyl])RPV-OH; C-terminus assumed) are 5% and 11%.
`CC[C@H](C)[C@H](NC(=O)CNC(=O)[C@H](CCCNC(=N)N)NC(=O)[C@H](CO)NC(=O)[C@H](C)NC(=O)[C@H](Cc1ccc(O)cc1)NC(=O)[C@H](Cc1c[nH]c2ccccc12)NC(=O)[C@H](C)NC(=O)[C@@H]1CCCN1C(=O)[C@H](CC(N)=O)NC(=O)[C@@H](NC(=O)[C@H](CC(=O)O)NC(=O)[C@@H]1CCCN1C(=O)[C@@H](NC(=O)[C@H](CCCNC(=N)N)NC(=O)[C@@H](NC(=O)[C@H](CCC(=O)O)NC(=O)[C@H](CCSC)NC(=O)[C@H](CO)NC(=O)[C@H](Cc1c[nH]cn1)NC(=O)[C@H](CCCNC(=N)N)NC(=O)[C@H](Cc1c[nH]cn1)NC(=O)[C@@H](NC(=O)[C@H](CCCNC(=N)N)NC(=O)[C@@H](N)CO)[C@@H](C)O)[C@@H](C)CC)[C@@H](C)O)[C@@H](C)CC)C(=O)N[C@@H](CCCNC(=N)N)C(=O)N1CCC[C@H]1C(=O)N[C@H](C(=O)NCC(=O)N[C@@H](CCCNC(=N)N)C(=O)N[C@@H](Cc1ccccc1)C(N)=O)C(C)C` [PrRP31]: the EC50 in data set [2] is > 5 µM.
